# Laboratory results taken from ChEMBL document CHEMBL5223082, “Alkyl-Aryl-Vancomycins: Multimodal Glycopeptides with Weak Dependence on the Bacterial Metabolic State” (J Med Chem, 2021).
# Calls of active or inactive are those of the source. The rule behind the calls is not given here.
# Tests used:
# [1] = Renal toxicity in mouse assessed as blood urea nitrogen level at 12 mg/kg, ip measured after 48 hrs; type: organism-based; conditions: in vivo
# [2] = Toxicity in BALB/c mouse assessed as animal's survival rate at 55.5 mg/kg, iv measured for 14 days; type: organism-based; conditions: in vivo, time 14 day
# [3] = test system: HEK293; assay: Cytotoxicity against human HEK293 cells at 30 uM incubated for 24 hrs by calceinAM/PI staining based fluorescence microscopy; type: toxicity, cell-based; conditions: hek293, 24 h
# [4] = test system: Staphylococcus aureus; assay: Bactericidal activity against methicillin-resistant Staphylococcus aureus ATCC 33591 assessed as log reduction in bacterial colonies incubated for 4 hrs in broth solution followed by culturing for 24 hrs on agar plate by spot plating method; type: functional; conditions: time 28 hrs
# [5] = test system: Staphylococcus aureus; assay: Antibiofilm activity against Methicillin-resistant Staphylococcus aureus ATCC 33591 assessed as bacterial biofilm thickness at 20 uM incubated for 24 hrs by confocal laser scanning microscopy (reference value: 8 micrometer); type: functional
# [6] = test system: Staphylococcus aureus; assay: Bactericidal activity against methicillin-resistant Staphylococcus aureus ATCC 33591 incubated for 24 hrs in broth solution followed by culturing for 24 hrs on agar plate by spot plating method; type: functional; conditions: time 48 hrs
# [7] = test system: Staphylococcus aureus; assay: Antibacterial activity against Methicillin-resistant Staphylococcus aureus ATCC 33591 assessed as log reduction in bacterial colonies at 10XMIC incubated for 1 hr in broth solution followed by plating on nutrient agar plate; type: functional
# [8] = test system: Staphylococcus aureus; assay: Antibacterial activity against Methicillin-resistant Staphylococcus aureus ATCC 33591 assessed as inhibition of bacterial growth measured after 27 passages; type: functional
# [9] = test system: Staphylococcus aureus; assay: Antibacterial activity against Methicillin-resistant Staphylococcus aureus ATCC 33591 assessed as time duration of post-antibiotic effect for suppression of bacterial growth at 10XMIC incubated for 1 hr in broth solution followed by washing for drug removal and subsequent plating on nutrient agar plate; type: functional
# [10] = test system: Enterococcus; assay: Potency index, ratio of Vancomycin MIC to test compound MIC for antibacterial activity against Vancomycin-resistant Enterococci ATCC 51559; type: functional
# [11] = test system: Staphylococcus aureus; assay: Antibacterial activity against stationary phase of Methicillin-resistant Staphylococcus aureus ATCC 33591 assessed as log reduction in bacterial colonies at 9 uM incubated for 24 hrs in broth solution followed by incubation on agar plate for 48 hrs by spot plating method; type: functional; conditions: time 72 hrs
# [12] = test system: Staphylococcus aureus; assay: Antibacterial activity against Methicillin-resistant Staphylococcus aureus ATCC 33591 infected in BALB/c mouse thigh infection model assessed as log reduction in bacterial load at 12 mg/kg, ip starting at 1 hr post-infection and measured at 24 hrs post-drug treatment; type: functional
# [13] = test system: Staphylococcus aureus; assay: Antibacterial activity against stationary phase of Methicillin-resistant Staphylococcus aureus ATCC 33591 assessed as log reduction in bacterial colonies at 22 uM incubated for 24 hrs in broth solution followed by incubation on agar plate for 48 hrs by spot plating method; type: functional; conditions: time 72 hrs
# [14] = test system: Staphylococcus aureus; assay: Bactericidal activity against methicillin-resistant Staphylococcus aureus ATCC 33591 assessed as log reduction in bacterial colonies incubated for 2 hrs in broth solution followed by culturing for 24 hrs on agar plate by spot plating method; type: functional; conditions: time 26 hrs
# [15] = test system: Staphylococcus aureus; assay: Potency index, ratio of Vancomycin MIC to test compound MIC for antibacterial activity against Vancomycin-resistant Staphylococcus aureus 4; type: functional
# [16] = test system: Enterococcus; assay: Antibacterial activity against Vancomycin-resistant Enterococci ATCC 51559 assessed as inhibition of bacterial growth incubated for 18 to 24 hrs by CLSI microbroth dilution method; type: functional; conditions: time 18-24 hrs
# [17] = test system: Cell membrane; assay: Induction of cytoplasmic membrane depolarization in Bacillus subtilis assessed as increase in fluorescence intensity at 10 uM measured for 35 to 40 mins by DiSC3(5) dye based fluorescence analysis; type: subcellular; conditions: time 35-40 min
# [18] = test system: Cell membrane; assay: Induction of cytoplasmic membrane depolarization in Vancomycin-resistant Enterococci assessed as increase in fluorescence intensity at 10 uM measured for 35 to 40 mins by DiSC3(5) dye based fluorescence analysis; type: subcellular; conditions: Enterococcus, time 35-40 min
# [19] = test system: Enterococcus; assay: Bactericidal activity against Vancomycin-resistant Enterococci assessed as log reduction in bacterial colonies at MIC incubated for 24 hrs in broth solution followed by culturing for 24 hrs on agar plate by spot plating method; type: functional; conditions: time 48 hrs
# [20] = biological target: T1, Septum site-determining protein MinD (Bacillus subtilis (strain 168)) (UniProt Q01464); assay: Delocalization of GFP tagged-MinD in Bacillus subtilis 168 at PEC incubated for 15 mins by fluorescence microscopy
# T1 sequence (whole entry): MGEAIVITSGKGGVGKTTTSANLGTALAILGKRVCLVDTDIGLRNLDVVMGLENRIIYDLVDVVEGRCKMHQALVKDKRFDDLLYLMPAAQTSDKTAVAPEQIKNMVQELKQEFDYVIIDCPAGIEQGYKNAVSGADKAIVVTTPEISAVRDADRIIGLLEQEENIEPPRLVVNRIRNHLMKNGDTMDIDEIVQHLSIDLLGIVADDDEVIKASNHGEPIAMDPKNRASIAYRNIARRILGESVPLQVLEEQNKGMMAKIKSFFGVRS
# [21] = test system: Staphylococcus aureus; assay: Antibacterial activity against Vancomycin-resistant Staphylococcus aureus 1 assessed as inhibition of bacterial growth incubated for 18 to 24 hrs by CLSI microbroth dilution method; type: functional; conditions: time 18-24 hrs
# [22] = test system: Enterococcus; assay: Potency index, ratio of Vancomycin MIC to test compound MIC for antibacterial activity against Vancomycin-resistant Enterococci ATCC 51575; type: functional
# [23] = test system: Cell membrane; assay: Induction of cytoplasmic membrane permeabilization in Methicillin-resistant Staphylococcus aureus ATCC 33591 assessed as increase in fluorescence intensity at 10 uM measured for 30 to 40 mins by Propidium iodide staining based fluorescence analysis; type: subcellular; conditions: time 30-40 min
# [24] = test system: Enterococcus; assay: Antibacterial activity against Vancomycin-resistant Enterococci ATCC 51575 assessed as inhibition of bacterial growth incubated for 18 to 24 hrs by CLSI microbroth dilution method; type: functional; conditions: time 18-24 hrs
# [25] = test system: Staphylococcus aureus; assay: Bactericidal activity against methicillin-resistant Staphylococcus aureus ATCC 33591 assessed as log reduction in bacterial colonies at 2XMIC incubated for 6 hrs in broth solution followed by culturing for 24 hrs on agar plate by spot plating method; type: functional; conditions: time 30 hrs
# [26] = test system: Enterococcus; assay: Bactericidal activity against Vancomycin-resistant Enterococci assessed as log reduction in bacterial colonies at 2XMIC incubated for 24 hrs in broth solution followed by culturing for 24 hrs on agar plate by spot plating method; type: functional; conditions: time 48 hrs
# [27] = test system: Staphylococcus aureus; assay: Potency index, ratio of Vancomycin MIC to test compound MIC for antibacterial activity against Vancomycin-resistant Staphylococcus aureus 12; type: functional
# [28] = test system: Staphylococcus aureus; assay: Antibacterial activity against stationary phase of Methicillin-resistant Staphylococcus aureus ATCC 33591 assessed as log reduction in bacterial colonies at 4.5 uM incubated for 12 hrs in broth solution followed by incubation on agar plate for 48 hrs by spot plating method; type: functional; conditions: time 60 hrs
# [29] = test system: Staphylococcus aureus; assay: Antibacterial activity against Vancomycin-resistant Staphylococcus aureus 12 assessed as inhibition of bacterial growth incubated for 18 to 24 hrs by CLSI microbroth dilution method; type: functional; conditions: time 18-24 hrs
# [30] = test system: Staphylococcus aureus; assay: Antibacterial activity against Methicillin-resistant Staphylococcus aureus ATCC 33591 assessed as inhibition of bacterial growth preincubated compound with N,N'-diacetyl-L-Lys-D-Ala-D-Ala for 10 mins followed by incubation with bacterial culture for 18 to 24 hrs by CLSI microbroth dilution method; type: functional; conditions: time 1090-1450 min
# [31] = test system: Staphylococcus aureus; assay: Antibacterial activity against Methicillin-resistant Staphylococcus aureus ATCC 33591 assessed as inhibition of bacterial growth incubated for 18 to 24 hrs in presence of 50% human plasma by CLSI microbroth dilution method; type: functional; conditions: time 18-24 hrs
smiles,measurement,setting,value
CCCCCCCCCCNC(=O)C[N+](C)(C)CCCNC(=O)c1ccc(CN[C@@]2(C)C[C@H](O[C@H]3[C@H](Oc4c5cc6cc4Oc4ccc(cc4Cl)[C@@H](O)[C@@H](NC(=O)[C@@H](CC(C)C)NC)C(=O)N[C@@H](CC(N)=O)C(=O)N[C@H]6C(=O)N[C@H]4C(=O)N[C@H](C(=O)N[C@H](C(=O)O)c6cc(O)cc(O)c6-c6cc4ccc6O)[C@H](O)c4ccc(c(Cl)c4)O5)O[C@H](CO)[C@@H](O)[C@@H]3O)O[C@@H](C)[C@H]2O)cc1,Activity,[1],20.7 mg/dL
same,survival at 336 h,[2],100%
same,Activity,[3],Non-Toxic
same,Activity,[4],3 log10CFU/ml
same,Activity,[5],3.5 um
same,MBC,[6],0.9 µM
same,Activity,[7],0.8 log10CFU/ml
same,MIC,[8],0.9 µM
same,Time,[9],23 h
same,Ratio,[10],1384
same,Activity,[11],2.4 log10CFU/ml
same,Activity,[12],2.8 log10CFU/g
same,Activity,[13],7 log10CFU/ml
same,Activity,[14],2 log10CFU/ml
same,Ratio,[15],1384
same,MIC,[16],3.6 µM
same,Activity,[17],Active
same,Activity,[18],Active
same,Activity,[19],0.7 log10CFU/ml
same,Activity,[20],inactive
same,MIC,[21],1.8 µM
same,Ratio,[22],1384
same,Activity,[23],Active
same,MIC,[24],3.6 µM
same,Activity,[25],4.3 log10CFU/ml
same,Activity,[26],5 log10CFU/ml
same,Ratio,[27],1384
same,Activity,[28],1.4 log10CFU/ml
same,MIC,[29],0.9 µM
same,MIC,[30],0.9 µM
same,MIC,[31],0.9 µM
